PubChem BioAssay AID330 (DTP/NCI, 2004)
Values joined by “and” are separate entries in the source; they are usually repeats but may differ in a detail not shown here. Equal values may be shown once. Inconclusive results and toxic doses are left out.

Test system: P388 leukemia ip, CD2F1 mice, survival T/C
Assay: NCI In Vivo Anticancer Drug Screen. Data for tumor model P388 Leukemia (intraperitoneal) in CD2F1 (CDF1) mice
Settings: endpoint: median survival time, higher = longer survival
Method in brief: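 Mice carrying the transplanted tumor received test compound or vehicle. Survival was recorded in each group, and the value is the treated-group measurement divided by that of the vehicle-treated control group.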

With `CO[C@H](C(=O)[C@@H](O)[C@@H](C)O)[C@@H]1Cc2cc3cc(OC4CC(OC5CC(O)C(O)C(C)O5)C(O)C(C)O4)c(C)c(O)c3c(O)c2C(=O)[C@H]1OC1CC(OC2CC(OC3CC(C)(O)C(O)C(C)O3)C(O)C(C)O2)C(O)C(C)O1` (stereo partly drawn) the T/C (dose: 0.01 mg/kg/injection, schedule: Q01DX009 (ip), vehicle: saline) was 100 % of control, the T/C (dose: 0.02 mg/kg/injection, schedule: Q01DX009 (sc), vehicle: saline) was 100 % of control and the T/C (dose: 0.03 mg/kg/injection, schedule: Q01DX001 (ip), vehicle: saline) was 100 % of control. For the same compound, the T/C (dose: 0.03 mg/kg/injection, schedule: Q01DX001 (sc), vehicle: saline) was 104 % of control, the T/C (dose: 0.03 mg/kg/injection, schedule: Q01DX005 (iv), vehicle: saline) was 100 % of control and the T/C (dose: 0.03 mg/kg/injection, schedule: Q01DX009 (ip), vehicle: saline) was 100 % of control. For the same compound, the T/C (dose: 0.03 mg/kg/injection, schedule: Q01DX009 (sc), vehicle: saline) was 104 % of control, the T/C (dose: 0.05 mg/kg/injection, schedule: Q01DX009 (ip), vehicle: water) was 109 % of control and 110 % of control and the T/C (dose: 0.05 mg/kg/injection, schedule: Q01DX010 (ip), vehicle: water) was 100 % of control. The T/C (dose: 0.06 mg/kg/injection, schedule: Q01DX001 (ip), vehicle: saline) was 100 % of control, the T/C (dose: 0.06 mg/kg/injection, schedule: Q01DX001 (sc), vehicle: saline) was 104 % of control and the T/C (dose: 0.06 mg/kg/injection, schedule: Q01DX005 (iv), vehicle: saline) was 100 % of control. For the same compound, the T/C (dose: 0.06 mg/kg/injection, schedule: Q01DX009 (ip), vehicle: saline) was 100 % of control, the T/C (dose: 0.06 mg/kg/injection, schedule: Q01DX009 (sc), vehicle: saline) was 100 % of control and the T/C (dose: 0.1 mg/kg/injection, schedule: Q01DX009 (ip), vehicle: water) was 115 % of control. The T/C (dose: 0.1 mg/kg/injection, schedule: Q01DX015 (ip), vehicle: water) was 100 % of control and 109 % of control, the T/C (dose: 0.12 mg/kg/injection, schedule: Q01DX009 (ip), vehicle: clinical formulation) was 103 % of control and 104 % of control and 108 % of control and the T/C (dose: 0.12 mg/kg/injection, schedule: Q01DX009 (ip), vehicle: water) was 111 % of control and 114 % of control. For the same compound, the T/C (dose: 0.13 mg/kg/injection, schedule: Q01DX001 (ip), vehicle: saline) was 100 % of control, the T/C (dose: 0.13 mg/kg/injection, schedule: Q01DX001 (sc), vehicle: saline) was 100 % of control and the T/C (dose: 0.13 mg/kg/injection, schedule: Q01DX005 (ip), vehicle: water) was 106 % of control and 107 % of control. The T/C (dose: 0.13 mg/kg/injection, schedule: Q01DX005 (iv), vehicle: saline) was 100 % of control, the T/C (dose: 0.13 mg/kg/injection, schedule: Q01DX009 (ip), vehicle: water) was 100 % of control and the T/C (dose: 0.13 mg/kg/injection, schedule: Q01DX009 (sc), vehicle: saline) was 100 % of control. For the same compound, the T/C (dose: 0.16 mg/kg/injection, schedule: Q01DX009 (ip), vehicle: saline) was 99 % of control, the T/C (dose: 0.2 mg/kg/injection, schedule: Q01DX009 (ip), vehicle: water) was 118 % of control and 120 % of control and the T/C (dose: 0.2 mg/kg/injection, schedule: Q01DX015 (ip), vehicle: water) was 109 % of control. For the same compound, the T/C (dose: 0.22 mg/kg/injection, schedule: Q01DX005 (ip), vehicle: clinical formulation) was 108 % of control, the T/C (dose: 0.25 mg/kg/injection, schedule: Q01DX001 (ip), vehicle: saline) was 100 % of control (2×) and 118 % of control and the T/C (dose: 0.25 mg/kg/injection, schedule: Q01DX001 (sc), vehicle: saline) was 100 % of control. The T/C (dose: 0.25 mg/kg/injection, schedule: Q01DX005 (ip), vehicle: water) was 108 % of control and 116 % of control, the T/C (dose: 0.25 mg/kg/injection, schedule: Q01DX005 (iv), vehicle: saline) was 100 % of control and the T/C (dose: 0.25 mg/kg/injection, schedule: Q01DX009 (ip), vehicle: clinical formulation) was 105 % of control and 109 % of control. For the same compound, the T/C (dose: 0.25 mg/kg/injection, schedule: Q01DX009 (oral), vehicle: saline) was 109 % of control, the T/C (dose: 0.25 mg/kg/injection, schedule: Q01DX009 (sc), vehicle: saline) was 100 % of control and the T/C (dose: 0.25 mg/kg/injection, schedule: Q03HX008 (ip), vehicle: saline) was 108 % of control. The T/C (dose: 0.25 mg/kg/injection, schedule: Q04DX024 (ip), vehicle: saline) was 116 % of control, the T/C (dose: 0.25 mg/kg/injection, schedule: Q08DX002 (ip), vehicle: saline) was 118 % of control and the T/C (dose: 0.27 mg/kg/injection, schedule: Q01DX009 (ip), vehicle: saline) was 99 % of control. The T/C (dose: 0.3 mg/kg/injection, schedule: Q01DX015 (ip), vehicle: water) was 104 % of control and 118 % of control, the T/C (dose: 0.36 mg/kg/injection, schedule: Q01DX005 (ip), vehicle: clinical formulation) was 105 % of control and the T/C (dose: 0.4 mg/kg/injection, schedule: Q01DX015 (ip), vehicle: water) was 109 % of control. The T/C (dose: 0.45 mg/kg/injection, schedule: Q01DX009 (ip), vehicle: saline) was 102 % of control, the T/C (dose: 0.5 mg/kg/injection, schedule: Q01DX001 (ip), vehicle: saline) was 100 % of control (2×) and 113 % of control and the T/C (dose: 0.5 mg/kg/injection, schedule: Q01DX001 (oral), vehicle: saline) was 100 % of control. The T/C (dose: 0.5 mg/kg/injection, schedule: Q01DX001 (sc), vehicle: saline) was 100 % of control, the T/C (dose: 0.5 mg/kg/injection, schedule: Q01DX005 (ip), vehicle: water) was 111 % of control and 114 % of control and the T/C (dose: 0.5 mg/kg/injection, schedule: Q01DX005 (iv), vehicle: saline) was 100 % of control. The T/C (dose: 0.5 mg/kg/injection, schedule: Q01DX009 (ip), vehicle: clinical formulation) was 116 % of control, the T/C (dose: 0.5 mg/kg/injection, schedule: Q01DX009 (ip), vehicle: saline) was 113 % of control and the T/C (dose: 0.5 mg/kg/injection, schedule: Q01DX009 (ip), vehicle: water) was 150 % of control. For the same compound, the T/C (dose: 0.5 mg/kg/injection, schedule: Q01DX009 (oral), vehicle: saline) was 109 % of control, the T/C (dose: 0.5 mg/kg/injection, schedule: Q01DX009 (sc), vehicle: saline) was 100 % of control and the T/C (dose: 0.5 mg/kg/injection, schedule: Q01DX015 (ip), vehicle: water) was 118 % of control. For the same compound, the T/C (dose: 0.5 mg/kg/injection, schedule: Q03HX008 (ip), vehicle: saline) was 108 % of control, the T/C (dose: 0.6 mg/kg/injection, schedule: Q01DX005 (ip), vehicle: clinical formulation) was 113 % of control and the T/C (dose: 0.65 mg/kg/injection, schedule: Q01DX009 (ip), vehicle: water) was 150 % of control. The T/C (dose: 0.75 mg/kg/injection, schedule: Q01DX009 (ip), vehicle: saline) was 104 % of control, the T/C (dose: 1.0 mg/kg/injection, schedule: Q01DX001 (ip), vehicle: saline) was 118 % of control and the T/C (dose: 1.0 mg/kg/injection, schedule: Q01DX001 (oral), vehicle: saline) was 104 % of control. The T/C (dose: 1.0 mg/kg/injection, schedule: Q01DX001 (sc), vehicle: saline) was 104 % of control, the T/C (dose: 1.0 mg/kg/injection, schedule: Q01DX005 (ip), vehicle: water) was 118 % of control and the T/C (dose: 1.0 mg/kg/injection, schedule: Q01DX009 (ip), vehicle: clinical formulation) was 104 % of control. The T/C (dose: 1.0 mg/kg/injection, schedule: Q01DX009 (oral), vehicle: saline) was 109 % of control, the T/C (dose: 1.0 mg/kg/injection, schedule: Q03HX008 (ip), vehicle: saline) was 116 % of control and the T/C (dose: 1.0 mg/kg/injection, schedule: Q08DX002 (ip), vehicle: saline) was 109 % of control. For the same compound, the T/C (dose: 2.0 mg/kg/injection, schedule: Q01DX001 (oral), vehicle: saline) was 100 % of control, the T/C (dose: 2.0 mg/kg/injection, schedule: Q01DX009 (ip), vehicle: clinical formulation) was 116 % of control and the T/C (dose: 2.0 mg/kg/injection, schedule: Q01DX009 (oral), vehicle: saline) was 109 % of control. For the same compound, the T/C (dose: 4.0 mg/kg/injection, schedule: Q01DX001 (oral), vehicle: saline) was 100 % of control.
`CC(C)(C)OC(=O)NN(CC(=O)OCc1ccccc1)N=O` was tested, and the T/C (dose: 12.5 mg/kg/injection, schedule: Q01DX009 (ip), vehicle: other) was 104 % of control, the T/C (dose: 25.0 mg/kg/injection, schedule: Q01DX009 (ip), vehicle: other) was 97 % of control and the T/C (dose: 50.0 mg/kg/injection, schedule: Q01DX009 (ip), vehicle: other) was 97 % of control. The T/C (dose: 100.0 mg/kg/injection, schedule: Q01DX009 (ip), vehicle: other) was 101 % of control and the T/C (dose: 200.0 mg/kg/injection, schedule: Q01DX009 (ip), vehicle: other) was 97 % of control.
In the case of `COC(=O)NC(=O)CNc1ncc([N+](=O)[O-])s1`, the T/C (dose: 100.0 mg/kg/injection, schedule: Q01DX001 (ip), vehicle: saline) is reported as 107 % of control, the T/C (dose: 200.0 mg/kg/injection, schedule: Q01DX001 (ip), vehicle: saline) is reported as 107 % of control and the T/C (dose: 400.0 mg/kg/injection, schedule: Q01DX001 (ip), vehicle: saline) is reported as 88 % of control.
For `O=c1cncc[nH]1`, the T/C (dose: 12.5 mg/kg/injection, schedule: Q01DX009 (ip), vehicle: saline) was 105 % of control, the T/C (dose: 25.0 mg/kg/injection, schedule: Q01DX009 (ip), vehicle: saline) was 108 % of control and the T/C (dose: 50.0 mg/kg/injection, schedule: Q01DX009 (ip), vehicle: saline) was 108 % of control. For the same compound, the T/C (dose: 100.0 mg/kg/injection, schedule: Q01DX009 (ip), vehicle: saline) was 109 % of control and the T/C (dose: 200.0 mg/kg/injection, schedule: Q01DX009 (ip), vehicle: saline) was 96 % of control.
